Test results: patent EP0184861A1, “Derivatives of the 3-mercapto-2-oxo-1-pyrrolidinacetic acid, process for their preparation and pharmaceutical compositions containing them” (PROTER S.p.A., priority 1984, dated 1986)

Experiments:
[1] = system: fluid of the respiratory tract; experiment: expectorant activity: fluorescein elimination in the fluid of the respiratory tract; assay type: in vivo; conditions: in comparison to the controls; dose 1 mM/kg/os
4% mucin suspension = experiment: mucolithic activity "in vitro" with a 4% mucin suspension (viscosity reduction); assay type: biochemical; conditions: molar concentration 0,012 M
Source text: The 3-mercapto-2-oxo-1-pyrrolidinyl acetic acid (V) and its derivatives are endowed with interesting phamacological properties; particularly they are endowed with a relevant mucolithic, expectorant and anti-cough activity and moreover show a very low toxicity.

[2] = acute toxicity in the mouse; conditions: in vivo, male and female mouse
Source text: (§1) Thanks to their pharmacological properties and to the absence of toxicity, the compounds of formula I and their possible pharmaceutically acceptable salts may be used as drugs in the treatment of diseases of the respiratory tract.

[3] = acute toxicity in the rat; conditions: in vivo, male and female rat
Source text: as §1

[4] = tested after a suitable hydrolysis of the thioester

Structure (SMILES) | increases of escretion of the colouring matter [1] | viscosity reduction (4% mucin suspension) | viscosity reduction (4% mucin suspension; [4]) | LD50 ([2]; ip) | LD50 ([2]; oral route) | LD50 ([3]; ip) | LD50 ([3]; oral route)
CC(=O)N[C@@H](CS)C(=O)O [N-acetyl-L-cysteine, reference compound] | 29.63% | 12.69% | – | – | – | – | –
O=C(O)CN1CCC(SC(=O)c2ccccc2)C1=O (stereo not drawn) [VII, 3-benzoylthio-2-oxo-l-pyrrolidinyl acetic acid] | – | – | 16.13% | – | – | – | –
O=C(O)CN1CCC(SC(=O)c2cccs2)C1=O (stereo not drawn) [VI, 3-(2-thenoylthio)-2-oxo-1-pyrrolidinyl acetic acid] | 54.26% | – | 18.22% | > 2000 mg/kg | > 3000 mg/kg | > 1500 mg/kg | > 5000 mg/kg
O=C(O)CN1CCC(S)C1=O (stereo not drawn) [V, 3-mercapto-2-oxo-1-pyrrolidinyl acetic acid] | 52.92% | 20.95% | – | > 2000 mg/kg | > 3000 mg/kg | > 1500 mg/kg | > 5000 mg/kg
